In ChEMBL document CHEMBL5053492, “Discovery of tert-amine-based RORγt agonists” (Eur J Med Chem, 2021) one finds EC50 and Activity data, which are given here for 35 molecules.

The structures appear in SMILES notation.

The first assay deals with T1, Nuclear receptor ROR-gamma (Homo sapiens, UniProt P51449).
T1 sequence (P51449 whole entry): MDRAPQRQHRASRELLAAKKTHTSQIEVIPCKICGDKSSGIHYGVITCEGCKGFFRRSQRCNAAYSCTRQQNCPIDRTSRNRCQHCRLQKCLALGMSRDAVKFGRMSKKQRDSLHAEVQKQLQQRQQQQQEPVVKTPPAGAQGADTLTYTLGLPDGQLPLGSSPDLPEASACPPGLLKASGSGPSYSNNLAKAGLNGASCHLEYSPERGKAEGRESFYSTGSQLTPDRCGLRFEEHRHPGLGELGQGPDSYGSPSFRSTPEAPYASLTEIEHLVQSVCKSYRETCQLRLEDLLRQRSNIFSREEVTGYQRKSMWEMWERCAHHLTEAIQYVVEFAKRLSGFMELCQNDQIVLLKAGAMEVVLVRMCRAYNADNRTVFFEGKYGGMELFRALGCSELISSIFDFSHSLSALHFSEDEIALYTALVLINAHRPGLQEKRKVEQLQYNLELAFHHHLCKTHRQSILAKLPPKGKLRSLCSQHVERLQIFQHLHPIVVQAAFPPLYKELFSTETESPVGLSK
The experiment in a line: Agonist activity at APC-labeled RORgammat LBD (unknown origin) incubated for 1 hr in presence of europium labeled co-activator SRC1 by dual FRET assay.
Conditions: not given
Usually EC50 stands for the concentration giving half of the maximal effect. Consider `CCCN(Cc1ccc(NC(=O)Cc2ccc(S(=O)(=O)CC)cc2)cc1)CC1CCC(F)(F)CC1`, for which the EC50 came out at 79.6 nM.
With `CCCN(Cc1ccccc1)Cc1ccc(NCCc2ccc(S(=O)(=O)CC)cc2)cc1`, the EC50 was 33.6 nM.
In the case of `CCS(=O)(=O)c1ccc(CC(=O)Nc2ccc(CN(Cc3ccccc3)CC3CC3)cc2)cc1`, the EC50 was determined as 14 nM.
Regarding `CCCN(Cc1ccc(NC(=O)Cc2ccc(S(=O)(=O)CC)cc2)cc1)CC1CCC1`, the half-maximal effective concentration (EC50) is 291 nM.
On the same count and under the same terms, with `CCS(=O)(=O)c1ccc(CC(=O)Nc2ccc(CN(Cc3ccccc3)CC3CCC3)cc2)cc1` the figure was 7.1 nM.
With `CCCCN(Cc1ccccc1)Cc1ccc(NC(=O)Cc2ccc(S(=O)(=O)CC)cc2)cc1`, the 50% effective concentration (EC50) was found to be 11.1 nM.
The same measure, in the same setting: with `CCS(=O)(=O)c1ccc(CC(=O)Nc2ccc(NCCc3ccccc3)cc2)cc1` the figure was 55.2 nM; with `CCCN(Cc1ccc(NC(=O)Cc2ccc(S(=O)(=O)CC)cc2)cc1)Cc1ccccc1C`, 11.6 nM; with `CCCN(Cc1ccc(NC(=O)Cc2ccc(S(=O)(=O)CC)cc2)cc1)CC1CCCC1`, 109 nM.
Same read-out and setting: with `CCCN(Cc1ccccc1)Cc1ccc(NC(=O)Cc2ccc(S(=O)(=O)CC)cn2)cc1` the figure was 7100 nM; with `CCCN(Cc1ccc(NC(=O)Cc2ccc(S(=O)(=O)CC)cc2)cc1)Cc1ccccc1F`, 9.4 nM.
Still for that read-out and setting: with `CCCN(Cc1ccc(NC(=O)Cc2ccc(S(=O)(=O)CC)cc2)cc1)Cc1ccccc1Cl` the figure was 16.9 nM; with `CCCN(Cc1ccc(NC(=O)Cc2ccc(S(=O)(=O)CC)cc2)cc1)Cc1nccs1`, above 30000 nM; with `CCCN(Cc1ccccc1)Cc1c(Cl)cc(NC(=O)Cc2ccc(S(=O)(=O)CC)cc2)cc1Cl`, 8.2 nM.
Consider `CCCN(Cc1ccc(NC(=O)Cc2ccc(S(=O)(=O)CC)cc2)cc1)CC1CCOCC1`, for which the EC50 was 86.2 nM.
Same read-out and setting: as for `CCCN(Cc1ccccc1)Cc1ccc(NC(=O)Cc2ccc(S(C)(=O)=O)cc2)cc1`, the figure is 43.1 nM; as for `CCCN(Cc1ccc(NC(=O)Cc2ccc(S(=O)(=O)CC)cc2)cc1)Cc1cccs1`, 29.1 nM.
The same measure, in the same setting: with `CCCN(Cc1ccccc1)Cc1ccc(NC(=O)Cc2ccc(C(=O)O)cc2)cc1` the figure was above 30000 nM; with `CCCN(Cc1ccccc1)Cc1ccc(NC(=O)Cc2ccc(C#N)cc2)cc1`, 346 nM.
Same read-out and setting: with `CCS(=O)(=O)c1ccc(CC(=O)Nc2ccc(CN(C)Cc3ccccc3)cc2)cc1` the figure was 101 nM.
Consider `CCCN(Cc1ccccc1)Cc1ccc(NC(=O)NCc2ccc(S(=O)(=O)CC)cc2)cc1`, for which the EC50 came out at 58 nM.
On the same count and under the same terms, with `CCCN(Cc1ccccc1)Cc1ccc(NC(=O)Cc2ccc(S(=O)(=O)CC)cc2)cc1Cl` the figure was 8.7 nM; with `CCCN(Cc1ccc(NC(=O)Cc2ccc(S(=O)(=O)CC)cc2)cc1)CC1CC1`, 6530 nM; with `CCCN(Cc1ccccc1)Cc1ccc(C(=O)NCc2ccc(S(=O)(=O)CC)cc2)cc1`, 9.2 nM.
On the same count and under the same terms, as for `CCS(=O)(=O)c1ccc(CC(=O)Nc2ccc(CN(Cc3ccccc3)CC3CC3)c(Cl)c2)cc1`, the figure is 8 nM; as for `CCCN(Cc1ccc(NC(=O)Cc2ccc(S(=O)(=O)CC)cc2)cc1)Cc1cccnc1`, 40.2 nM; as for `CCCN(CCc1ccccc1)c1ccc(NC(=O)Cc2ccc(S(=O)(=O)CC)cc2)cc1`, 11.6 nM.
Same read-out and setting: with `CCCN(Cc1ccc(NC(=O)Cc2ccc(S(=O)(=O)CC)cc2)cc1)CC1CCCO1` (stereo unspecified) the figure was 285 nM; with `CCCN(Cc1ccc(Cl)cc1)Cc1ccc(NC(=O)Cc2ccc(S(=O)(=O)CC)cc2)cc1`, 16.8 nM; with `CCS(=O)(=O)c1ccc(CC(=O)Nc2ccc(CNCc3ccccc3)cc2)cc1`, above 30000 nM.
For the molecule `CCCN(Cc1ccccc1)Cc1ccc(NC(=O)Cc2ccccc2)cc1`, the EC50 is 2170 nM.
As to `CCN(Cc1ccccc1)Cc1ccc(NC(=O)Cc2ccc(S(=O)(=O)CC)cc2)cc1`, the 50% effective concentration (EC50) came out at 36.3 nM.

Another assay addresses T1, Nuclear receptor ROR-gamma. Kind of assay: Agonist activity at human RORgammat LBD expressed in HEK293T cells assessed as increase in Gal4 reporter gene transcription measured after 16 to 20 hrs by luciferase reporter gene assay. In kind it is cell-based.
Conditions: not given
Take `CCCN(Cc1ccc(NC(=O)Cc2ccc(S(C)(=O)=O)cc2)cc1)CC1CCCCC1`: the EC50 was found to be 277 nM.
Still for that read-out and setting: as for `CCCN(Cc1c(Cl)cc(NC(=O)Cc2ccc(S(C)(=O)=O)cc2)cc1Cl)CC1CCCCC1`, the figure is 382 nM.
Same read-out and setting: as for `CCCN(Cc1ccc(NC(=O)Cc2ccc(S(C)(=O)=O)cc2)cc1Cl)CC1CCCCC1`, the figure is 283 nM.

Another assay deals with T2, Nuclear receptor ROR-gamma (Mus musculus) (UniProt P51450).
T2 sequence (whole entry): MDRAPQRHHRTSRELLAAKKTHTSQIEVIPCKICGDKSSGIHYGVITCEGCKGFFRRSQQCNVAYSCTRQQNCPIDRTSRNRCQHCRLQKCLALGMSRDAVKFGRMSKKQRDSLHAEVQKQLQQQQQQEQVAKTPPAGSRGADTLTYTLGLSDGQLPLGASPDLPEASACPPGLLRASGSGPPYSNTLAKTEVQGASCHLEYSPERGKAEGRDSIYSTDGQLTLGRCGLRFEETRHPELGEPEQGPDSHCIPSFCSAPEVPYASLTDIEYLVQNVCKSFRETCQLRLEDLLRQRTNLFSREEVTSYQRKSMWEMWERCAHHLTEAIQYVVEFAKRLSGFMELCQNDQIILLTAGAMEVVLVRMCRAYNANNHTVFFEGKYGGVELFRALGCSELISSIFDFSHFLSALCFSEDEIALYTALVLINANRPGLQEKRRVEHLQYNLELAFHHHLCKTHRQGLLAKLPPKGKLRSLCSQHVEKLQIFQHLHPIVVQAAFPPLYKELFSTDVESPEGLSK
Kind of assay: Agonist activity at RORgammat in mouse CD4+ T cells assessed as induction of Th17 cells differentiation by measuring increase in IL17 production at 250 nM measured after 4 days by intracellular staining based flow cytometry (reference value: 16.5 %). In kind it is cell-based. The settings on record: CD4+ve Th, time 4.0 day.
For the molecule `CCCN(Cc1ccc(NC(=O)Cc2ccc(S(C)(=O)=O)cc2)cc1Cl)CC1CCCCC1`, the Activity amounted to 21.9%.
